This note sets out measurements from patent publication EP0155799A2, “Paulomycin analogues and their preparation” (THE UPJOHN COMPANY, priority 1984, dated 1985).

Values after ≈ are worked out from the molar mass of the structure shown. Read-outs that look alike come from different tables or passages of the source.

One series relates to Serratia marcescens. Briefly: MIC, standard microplate agar assay, PYG agar pH 6 (aerobic bacteria). It counts as cell-based. Conditions: for MIC: Serratia marcescens, UC6888, 24 h, pH 6, Serratia marcescens UC 6888, pH 6, read-out: MINIMAL INHIBITORY CONCENTRATION
How it is done: (§1) The antibacterial assay is a standard microplate agar assay using PYG agar, pH 6. PYG agar consists of the following ingredients:
(§2) The MIC is determined by standard methods. The inocula are overnight cultures of the test organisms, diluted so that the final population contains approximately 10^5 cells/ml. The agar plates are incubated at 28°C to 37°C for 24 hrs. The lowest antibiotic concentration which allows no growth=MIC or minimum inhibitory concentration.
(§3) The MIC is determined by standard methods. The inocula are overnight cultures of the test organisms, diluted so that the final population contains approximately 10^5 cells/ml. The agar plates are incubated at 28°C to 37°C for 24 hrs. The lowest antibiotic concentration which allows no growth-HIC or minimum inhibitory concentration.

The test system of another series is Escherichia coli. The series is described as above. Conditions: read-out: MINIMAL INHIBITORY CONCENTRATION
The series is classed as cell-based. How it is done: as §1, §2, §3

Another series relates to Enterobacter cloacae. The series is described as above. The series is classed as cell-based. The settings on record: read-out: MINIMAL INHIBITORY CONCENTRATION
How it is done: as §1, §2, §3

Another series deals with Pseudomonas aeruginosa. Described as above. The series is classed as cell-based. The settings on record: read-out: MINIMAL INHIBITORY CONCENTRATION
How it is done:
as §1, §2, §3

For the next series, the system named is Klebsiella oxytoca. The series is described as above. The series is classed as cell-based. Conditions: read-out: MINIMAL INHIBITORY CONCENTRATION
How it is done: as §1, §2, §3

The subject of another series is Streptococcus faecalis. Described as above. It counts as cell-based. Conditions: Enterococcus faecalis, UC694, 24 h; Streptococcus faecalis UC 694, pH 6; read-out: MINIMAL INHIBITORY CONCENTRATION
How it is done:
as §1, §2, §3

Another series concerns Proteus vulgaris. Described as above. It counts as cell-based. Conditions: UC30264, 24 h; Proteus vulgaris UC 30264, pH 6; read-out: MINIMAL INHIBITORY CONCENTRATION
The method, then:
as §1, §2, §3

The subject of another series is Klebsiella pneumoniae. The description is as above. The settings on record: UC58, 24 h; Klebsiella pneumoniae UC 58, pH 6; read-out: MINIMAL INHIBITORY CONCENTRATION
The series is classed as cell-based. How it is done: as §1, §2, §3

A further series relates to Staphylococcus aureus. The series is described as above. The settings on record: read-out: MINIMAL INHIBITORY CONCENTRATION
It counts as cell-based. How it is done: as §1, §2, §3

Another series deals with Citrobacter freundii. The series is described as above. The series is classed as cell-based. The settings on record: UC3507, 24 h; Citrobacter freundii UC 3507, pH 6; read-out: MINIMAL INHIBITORY CONCENTRATION
How it is done:
as §1, §2, §3

The nature of series [1]: Solubility (characterization). The series is classed as physicochemical. Conditions: solvents as named in the value.
In series [2] the test system is Staphylococcus aureus U.C. 6685. Briefly: Antibacterial activity in vivo, experimentally infected mouse. Conditions: sc, dosed subcutaneously, infected experimentally with Staphylococcus aureus U.C. 6685, read-out: CD50 (the source's name).
Where [3] appears, read: UC311, 24 h, Escherichia coli UC 311, pH 6.
Where [4] appears, read: UC9379, 24 h, Escherichia coli UC 9379, pH 6.
The mark [5] stands for this setting: UC9380, 24 h, Escherichia coli UC 9380, pH 6.
[6] abbreviates: UC9381, 24 h, Enterobacter cloacae UC 9381, pH 6.
Setting [7] is: UC9382, 24 h, Enterobacter cloacae UC 9382, pH 6.
Where [8] appears, read: UC6432, 24 h, Pseudomonas aeruginosa UC 6432, pH 6.
The mark [9] stands for this setting: UC9191, 24 h, Pseudomonas aeruginosa UC 9191, pH 6.
[10] abbreviates: UC9383, 24 h, Klebsiella oxytoca UC 9383, pH 6.
The mark [11] stands for this setting: UC9384, 24 h, Klebsiella oxytoca UC 9384, pH 6.
[12] abbreviates: UC3665, 24 h, Staphylococcus aureus UC 3665, pH 6.
Setting [13] is: UC6675, 24 h, Staphylococcus aureus UC 6675, pH 6.
Where [14] appears, read: UC6685, 24 h, Staphylococcus aureus UC 6685, pH 6.

Take `CC=C(N=C=S)C(=O)OC1C(COC(C)=O)OC(C2(O)CC(=O)C(O)=C(C(N)=O)C2=O)C(O)C1OC1CC(OC)C(O)(C(C)OC(=O)CC(C)C)C(C)O1` (stereo not drawn) [Paulomycin A2]: the MIC in the series on Serratia marcescens, in the series on Escherichia coli (setting [3]), with Escherichia coli (setting [4]), in the series with Escherichia coli (setting [5]), in the series with Enterobacter cloacae (setting [6]) and in the series with Enterobacter cloacae (setting [7]) was above 64 µg/mL throughout. In addition, the MIC is above 64 µg/mL in the series with Pseudomonas aeruginosa (setting [8]); above 64 µg/mL in the series on Pseudomonas aeruginosa (setting [9]); above 64 µg/mL with Klebsiella oxytoca (setting [10]); above 64 µg/mL in the series with Klebsiella oxytoca (setting [11]); 0.25 µg/mL (≈ 0.318 µM) in the series with Streptococcus faecalis; 32 µg/mL (≈ 40.7 µM) in the series on Proteus vulgaris. In addition, the MIC in the series with Klebsiella pneumoniae was above 64 µg/mL; in the series with Staphylococcus aureus (setting [12]) it was 0.12 µg/mL (≈ 0.153 µM); in the series with Staphylococcus aureus (setting [13]), 0.12 µg/mL (≈ 0.153 µM); with Staphylococcus aureus (setting [14]) it was 0.12 µg/mL (≈ 0.153 µM); in the series on Citrobacter freundii it was above 64 µg/mL. The Solubility entry in [1] is reported as “Soluble in lower alcohols, ketones, ethyl acetate, chloroform, methylene chloride; less soluble in ether; insoluble in saturated hdyrocarbon solvents”.
As for `CC=C(N=C=S)C(=O)OC1C(COC(C)=O)OC(C2(O)CC(=O)C(O)=C(C(N)=O)C2=O)C(O)C1OC1CC(OC)C(O)(C(C)OC(=O)C(C)CC)C(C)O1` (stereo not drawn) [Paulomycin A], the “MINIMAL INHIBITORY CONCENTRATION” value in the series on Serratia marcescens (Serratia marcescens UC 6888, pH 6) amounted to 64 µg/mL. Besides, the MIC in the series with Serratia marcescens, in the series with Escherichia coli (setting [3]), in the series with Escherichia coli (setting [4]), in the series with Escherichia coli (setting [5]), with Enterobacter cloacae (setting [6]) and with Enterobacter cloacae (setting [7]) was above 64 µg/mL each time. The MIC is above 64 µg/mL in the series on Pseudomonas aeruginosa (setting [8]); above 64 µg/mL in the series on Pseudomonas aeruginosa (setting [9]); above 64 µg/mL in the series with Klebsiella oxytoca (setting [10]); above 64 µg/mL in the series with Klebsiella oxytoca (setting [11]); 0.25 µg/mL (≈ 0.318 µM) with Streptococcus faecalis; 16 µg/mL (≈ 20.3 µM) with Proteus vulgaris. The MIC in the series with Klebsiella pneumoniae is above 64 µg/mL; with Staphylococcus aureus (setting [12]) it was 0.12 µg/mL (≈ 0.153 µM); in the series with Staphylococcus aureus (setting [13]) it was 0.12 µg/mL (≈ 0.153 µM); in the series with Staphylococcus aureus (setting [14]), 0.12 µg/mL (≈ 0.153 µM); in the series on Citrobacter freundii, above 64 µg/mL.
For `CC=C(N=C=S)C(=O)OC1C(COC(C)=O)OC(C2(O)CC(=O)C(O)=C(C(N)=O)C2=O)C(O)C1OC1CC(OC)C(O)(C(C)=O)C(C)O1` (stereo not drawn) [Paulomycin E], the MIC with Serratia marcescens, in the series with Escherichia coli (setting [3]), in the series with Escherichia coli (setting [4]), in the series with Escherichia coli (setting [5]), in the series with Enterobacter cloacae (setting [6]) and with Enterobacter cloacae (setting [7]) was above 64 µg/mL each time. Besides, the MIC in the series with Pseudomonas aeruginosa (setting [8]) was above 64 µg/mL; in the series with Pseudomonas aeruginosa (setting [9]), above 64 µg/mL; in the series with Klebsiella oxytoca (setting [10]), above 64 µg/mL; in the series with Klebsiella oxytoca (setting [11]), above 64 µg/mL; with Streptococcus faecalis, 1 µg/mL (≈ 1.43 µM); in the series on Proteus vulgaris, above 64 µg/mL. The MIC with Klebsiella pneumoniae is above 64 µg/mL; in the series on Staphylococcus aureus (setting [12]) it was 1 µg/mL (≈ 1.43 µM); in the series with Staphylococcus aureus (setting [13]), 1 µg/mL (≈ 1.43 µM); with Staphylococcus aureus (setting [14]), 1 µg/mL (≈ 1.43 µM); with Citrobacter freundii it was above 64 µg/mL. In addition, the Solubility entry in [1] was “Soluble in lower alcohols, ketones, ethyl acetate, chloroform, methylene chloride; less soluble in ether; insoluble in saturated hdyrocarbon solvents”.
For the molecule `CCC(C)C(=O)OC(C)C1(O)C(C)OC(OC2C(O)C(C3(O)CC(=O)C(O)=C(C(N)=O)C3=O)OC(COC(C)=O)C2OC(=O)C(NC(=S)SC[C@H](NC(C)=O)C(=O)O)C(C)SCCO)CC1OC` (stereo partly drawn) [R2=CH2CH2OH R3=CH2CHCOOH | NHCOCH3], the ED50 in [2] is 15.3 mg/kg.
Same read-out and setting: then `CCC(C)C(=O)OC(C)C1(O)C(C)OC(OC2C(O)C(C3(O)CC(=O)C(O)=C(C(N)=O)C3=O)OC(COC(C)=O)C2OC(=O)C(NC(=S)SCCO)C(C)SC[C@H](NC(C)=O)C(=O)O)CC1OC` (stereo partly drawn) [R2=CH2CHCOOH | NHCOCH3 R3=CH2CH2OH], with 8 mg/kg.
For `CCC(C)C(=O)OC(C)C1(O)C(C)OC(OC2C(O)C(C3(O)CC(=O)C(O)=C(C(N)=O)C3=O)OC(COC(C)=O)C2OC(=O)C(NC(=S)SCCO)C(C)SC(CC(=O)O)C(=O)O)CC1OC` (stereo not drawn) [R2=CHCOOH | CH2COOH R3=CH2CH2OH], the ED50 in series [2] worked out at 44 mg/kg.
